{"source": "patent US5238936A", "about": "“Trisubstituted triazines” (Adir et Compagnie, priority 1991, dated 1993)", "key": {"[1]": {"test_system": "resistant line P/388/VCR", "assay": "Antitumour activity in vivo: increase in antitumour activity of vincristine on murine leukaemia P 388/VCR", "parameters": "species or system murine; female B6D2Fl mice", "settings": "with vincristine […] i.p., ± sem, no compound: 146 ± 2", "from_the_text": "This study was completed by an in vivo study, using a murine leukaemia resistant to vincristine (P/388/VCR) and using the compounds in association with vincristine.\nThe sensitive parent line P 388 (murine leukaemia) and the sub-line resistant to vincristine, P 388/VCR, were supplied by NCI (Frederick, USA). The tumour cells (10^6 cells) were inoculated on day 0 into the intraperitoneal cavity of female B6D2Fl mice (Iffa Credo, France) weighing from 18 to 20 g (groups of 8 to 10 animals).\nEvery day for 4 days, starting from day 1, the animals received: […]\n30 to 60 minutes later, an administration by the i.p. route of 0.25 mg/kg of vincristine (used as a reference antitumour agent).\nThe tumour activity is expressed as follows: [formula]\nThe values are mean values obtained in independent experiments (± sem when n is greater than or equal to 3)."}, "[2]": {"test_system": "line DC-3F/AD", "assay": "Flow cytometry: intracellular accumulation of adriamycin by cells of the line DC-3F/AD", "format": "cell-based, Chinese hamster", "settings": "ADR 50 μM, 5 hours", "from_the_text": "Also measured was the effect of the compounds on the intracellular concentration of the cytotoxic agent. In effect, the known compounds for reversing MDR act by increasing the intracellular concentration of cytotoxic agent. This effect is the consequence of inhibiting the action of gP 170 which is responsible for the efflux of the drug.\nBy measuring that fluorescence, it is thus possible to obtain a relative measurement of the intracellular concentration of ADR.\nThe cells 500×10^3 per ml were exposed simultaneously to ADR at a fixed concentration (50 μM) and to the tested compounds at various concentrations. After 5 hours' incubation, the intracellular accumulation of ADR was evaluated by FCM. […] The analysis of each of the samples was carried out on a total of 10,000 cells at a rate of 1,000 cells per second.\nThe results were presented in the form of linear histograms of the intracellular ADR fluorescence.\nExpression of the results: for each of the histograms the mean fluorescence per channel (MEAN) was determined by the information system of the apparatus. For all experiments:\na negative control (cells without ADR) fixed the autofluorescence threshold.\na positive control (cells with ADR) determined the MEAN value=MN1.\nthe \"test\" tubes (cells with ADR and with compound) were used to determine, for each of the compounds and at each of the concentrations, the MEAN values=MN2.\nThe results are expressed in the form of variations from the mean fluorescence obtained for each of the \"test\" tubes (MN2) in relation to the mean fluorescence obtained with the positive control (MNl): VAR-MEAN=MN2-MN1. The parameter expressed is thus the increase in ADR fluorescence in the presence of the tested compounds."}, "[3]": {"test_system": "line DC-3F/AD", "assay": "Cytotoxicity (Microculture Tetrazolium Assay): reversal of resistance to actinomycin D, line DC-3F/AD", "format": "cell-based, Chinese hamster", "settings": "4 days", "from_the_text": "The pharmacological study of the compounds of the present invention consisted first of all in an evaluation in vitro carried out on resistant cells. The parameter measured is the cytotoxicity of the antitumour drug, quantified in the absence and in the presence of the reversing compound.\nThe cells are distributed on microplates and exposed to the cytotoxic compounds (actinomycin D for line DC-3F/AD and adriamycin for line KB-Al) at 9 concentrations (2 by 2 series dilutions). The compounds tested for their capacity to reverse MDR are added at the same time as the cytotoxic agent.\nThe cells are then incubated for 4 days. […] The results are expressed as a reversion factor (RF): PG,29 [formula]"}}}
{"molecule": "C=CCNc1nc(NCC=C)nc(N2CCC(NCC3c4ccccc4COc4ccccc43)CC2)n1", "note": "(racemic) [Example 19, 2,4-diallylamino-6-{4-[((R,S)-6,11-dihydro-dibenzo[b,e]oxepin-11-yl)methylamino]piperidin-1-yl}-1,3,5-triazine]", "values": [{"measurement": "T/C %", "setting": "[1]; 50 mg/kg i.p. daily for 4 days", "value": "167 ± 7", "unit": "%"}, {"measurement": "T/C %", "setting": "[1]; 100 mg/kg i.p. daily for 4 days", "value": "184 ± 7", "unit": "%"}, {"measurement": "VAR-MEAN (increase in ADR fluorescence), line DC-3F/AD", "setting": "[2]; 1.0 μM compound", "value": 13.1}, {"measurement": "VAR-MEAN (increase in ADR fluorescence), line DC-3F/AD", "setting": "[2]; 5.0 μM compound", "value": 25.5}, {"measurement": "VAR-MEAN (increase in ADR fluorescence), line DC-3F/AD", "setting": "[2]; 10 μM compound", "value": 25.3}, {"measurement": "VAR-MEAN (increase in ADR fluorescence), line DC-3F/AD", "setting": "[2]; […] compound", "value": 22.6}, {"measurement": "Reversion factors (cytotoxicity) with the line DC-3F/AD", "setting": "[3]; 0.5 μM compound", "value": 3.8}, {"measurement": "Reversion factors (cytotoxicity) with the line DC-3F/AD", "setting": "[3]; 1 μM compound", "value": 63}, {"measurement": "Reversion factors (cytotoxicity) with the line DC-3F/AD", "setting": "[3]; 5 μM compound", "value": 2525}]}
{"molecule": "C=CCNc1nc(NCC=C)nc(N2CCC(NCC3c4ccccc4-c4ccccc43)CC2)n1", "note": "[Example 13, 2,4-diallylamino-6-{4-[(fluoren-9-yl)methylamino]piperidin-1-yl}-1,3,5-triazine]", "values": [{"measurement": "VAR-MEAN (increase in ADR fluorescence), line DC-3F/AD", "setting": "[2]; 1.0 μM compound", "value": 8.1}, {"measurement": "VAR-MEAN (increase in ADR fluorescence), line DC-3F/AD", "setting": "[2]; 5.0 μM compound", "value": 19.6}, {"measurement": "VAR-MEAN (increase in ADR fluorescence), line DC-3F/AD", "setting": "[2]; 10 μM compound", "value": 23.2}, {"measurement": "VAR-MEAN (increase in ADR fluorescence), line DC-3F/AD", "setting": "[2]; […] compound", "value": 12.0}, {"measurement": "Reversion factors (cytotoxicity) with the line DC-3F/AD", "setting": "[3]; 0.5 μM compound", "value": 2.1}, {"measurement": "Reversion factors (cytotoxicity) with the line DC-3F/AD", "setting": "[3]; 1 μM compound", "value": 7.1}, {"measurement": "Reversion factors (cytotoxicity) with the line DC-3F/AD", "setting": "[3]; 5 μM compound", "value": 170}]}
{"molecule": "CNc1nc(NC)nc(N2CCC(NCC3c4ccccc4CCc4ccccc43)CC2)n1", "note": "[Example 14, 2,4-dimethylamino-6-{4-[(10,11-dihydro-5H-dibenzo[a,d]cyclohepten-5-yl)methylamino]piperidin-1-yl}-1,3,5-triazine]", "values": [{"measurement": "VAR-MEAN (increase in ADR fluorescence), line DC-3F/AD", "setting": "[2]; 1.0 μM compound", "value": 12.3}, {"measurement": "VAR-MEAN (increase in ADR fluorescence), line DC-3F/AD", "setting": "[2]; 5.0 μM compound", "value": 29.4}, {"measurement": "VAR-MEAN (increase in ADR fluorescence), line DC-3F/AD", "setting": "[2]; 10 μM compound", "value": 30.6}, {"measurement": "VAR-MEAN (increase in ADR fluorescence), line DC-3F/AD", "setting": "[2]; […] compound", "value": 14.5}, {"measurement": "Reversion factors (cytotoxicity) with the line DC-3F/AD", "setting": "[3]; 0.5 μM compound", "value": 1.3}, {"measurement": "Reversion factors (cytotoxicity) with the line DC-3F/AD", "setting": "[3]; 1 μM compound", "value": 7.8}, {"measurement": "Reversion factors (cytotoxicity) with the line DC-3F/AD", "setting": "[3]; 5 μM compound", "value": 187}]}
{"molecule": "C=CCNc1nc(NCC=C)nc(NCCN2CCC(NCC3c4ccccc4CCc4ccccc43)CC2)n1", "note": "[Example 15, 2,4-diallylamino-6-(2-[4-(10,11-dihydro-5H-dibenzo-[a,d]cyclohepten-5-ylmethylamino)piperidin-1-yl]ethylamino}-1,3,5-triazine]", "values": [{"measurement": "VAR-MEAN (increase in ADR fluorescence), line DC-3F/AD", "setting": "[2]; 1.0 μM compound", "value": 10.1}, {"measurement": "VAR-MEAN (increase in ADR fluorescence), line DC-3F/AD", "setting": "[2]; 5.0 μM compound", "value": 13.7}, {"measurement": "VAR-MEAN (increase in ADR fluorescence), line DC-3F/AD", "setting": "[2]; 10 μM compound", "value": 12.4}, {"measurement": "VAR-MEAN (increase in ADR fluorescence), line DC-3F/AD", "setting": "[2]; […] compound", "value": 12.4}, {"measurement": "Reversion factors (cytotoxicity) with the line DC-3F/AD", "setting": "[3]; 0.5 μM compound", "value": 0.8}, {"measurement": "Reversion factors (cytotoxicity) with the line DC-3F/AD", "setting": "[3]; 1 μM compound", "value": 1}, {"measurement": "Reversion factors (cytotoxicity) with the line DC-3F/AD", "setting": "[3]; 5 μM compound", "value": 120}]}
{"molecule": "C=CCNc1nc(NCC=C)nc(NCC(O)CN2CCC(NC3c4ccccc4CCc4ccccc43)CC2)n1", "note": "(stereo not shown) [Example 16, 2,4-diallylamino-6-{3-[4-(10,11-dihydro-5H-dibenzo[a,d]cyclohepten-5-ylamino)piperidin-1-yl]-2-hydroxypropylamino}-1,3,5-triazine]", "values": [{"measurement": "VAR-MEAN (increase in ADR fluorescence), line DC-3F/AD", "setting": "[2]; 1.0 μM compound", "value": 9.9}, {"measurement": "VAR-MEAN (increase in ADR fluorescence), line DC-3F/AD", "setting": "[2]; 5.0 μM compound", "value": 10.4}, {"measurement": "VAR-MEAN (increase in ADR fluorescence), line DC-3F/AD", "setting": "[2]; 10 μM compound", "value": 12.9}, {"measurement": "VAR-MEAN (increase in ADR fluorescence), line DC-3F/AD", "setting": "[2]; […] compound", "value": 11.8}, {"measurement": "Reversion factors (cytotoxicity) with the line DC-3F/AD", "setting": "[3]; 0.5 μM compound", "value": 1}, {"measurement": "Reversion factors (cytotoxicity) with the line DC-3F/AD", "setting": "[3]; 1 μM compound", "value": 0.9}, {"measurement": "Reversion factors (cytotoxicity) with the line DC-3F/AD", "setting": "[3]; 5 μM compound", "value": 1.8}]}
